Values quoted from earlier work as cited in patent publication US20050196379A1, “Combination therapies with L-FMAU for the treatment of hepatitis B virus infection” (priority 2002, published 2005).

How the values were obtained:
[1] = test system: woodchuck hepatitis B virus (WHV); details: for drop of viral titers in serum: single drug, previous studies, same time frame (two weeks)
hepatitis B virus = details: in vivo

Compound	average decrease in CCC DNA ([1]; L-FMAU alone, Peek et al.)	drop of viral titers in serum [1]	number of infected hepatocytes ([1]; woodchuck model)	activity against hepatitis B virus in duck models (hepatitis B virus)	effect on viral replication and viral clearance ([1]; woodchuck model of HBV)
Cc1cn([C@H]2O[C@@H](CO)[C@H](O)[C@H]2F)c(=O)[nH]c1=O [L-FMAU, 1-(2′-deoxy-2′-fluoro-β-L-arabinofuranosyl)-thymine]	10 fold	~1,000 fold	decrease rapidly the number of infected hepatocytes		
β-2-hydroxymethyl-5-(5-fluorocytosin-1-yl)-1,3-oxathiolane [β-L-FTC]		about 56 fold		strong activity	inhibit viral replication but not induce viral clearance
